Experiment [1] has as its target T1, Adenosine receptor A1 (Homo sapiens, UniProt P30542).
T1 sequence (P30542 whole entry): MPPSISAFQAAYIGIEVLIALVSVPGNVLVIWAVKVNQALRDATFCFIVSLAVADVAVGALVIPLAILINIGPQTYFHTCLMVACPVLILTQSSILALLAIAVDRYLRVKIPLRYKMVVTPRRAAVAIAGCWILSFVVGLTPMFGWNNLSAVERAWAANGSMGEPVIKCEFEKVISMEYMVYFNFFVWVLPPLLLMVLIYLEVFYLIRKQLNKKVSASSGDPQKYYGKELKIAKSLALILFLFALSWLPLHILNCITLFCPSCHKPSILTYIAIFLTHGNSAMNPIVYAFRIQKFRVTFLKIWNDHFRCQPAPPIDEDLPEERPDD

For experiment [2], the target named is Beta-1 adrenergic receptor (Homo sapiens, UniProt P08588). It counts as functional.
Experiment [3] has as its target Vasopressin V2 receptor (Homo sapiens, UniProt P30518).
The target of experiment [4] is T2, Gastrin/cholecystokinin type B receptor (Homo sapiens, UniProt P32239).
T2 sequence (P32239 whole entry): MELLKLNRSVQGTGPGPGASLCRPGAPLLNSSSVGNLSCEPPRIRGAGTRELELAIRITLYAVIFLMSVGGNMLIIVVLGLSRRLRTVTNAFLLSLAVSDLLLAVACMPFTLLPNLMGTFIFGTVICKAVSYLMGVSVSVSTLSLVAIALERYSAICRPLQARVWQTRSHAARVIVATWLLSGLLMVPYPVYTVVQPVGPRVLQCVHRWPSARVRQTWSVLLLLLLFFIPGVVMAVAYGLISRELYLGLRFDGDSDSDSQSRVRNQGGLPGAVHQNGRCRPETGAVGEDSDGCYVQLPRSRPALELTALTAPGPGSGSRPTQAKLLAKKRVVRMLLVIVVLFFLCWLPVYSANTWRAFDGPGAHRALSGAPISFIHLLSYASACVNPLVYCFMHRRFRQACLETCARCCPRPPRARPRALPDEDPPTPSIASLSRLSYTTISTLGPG

For experiment [5], the target named is T3, Muscarinic acetylcholine receptor M2 (Homo sapiens, UniProt P08172).
T3 sequence (P08172 whole entry): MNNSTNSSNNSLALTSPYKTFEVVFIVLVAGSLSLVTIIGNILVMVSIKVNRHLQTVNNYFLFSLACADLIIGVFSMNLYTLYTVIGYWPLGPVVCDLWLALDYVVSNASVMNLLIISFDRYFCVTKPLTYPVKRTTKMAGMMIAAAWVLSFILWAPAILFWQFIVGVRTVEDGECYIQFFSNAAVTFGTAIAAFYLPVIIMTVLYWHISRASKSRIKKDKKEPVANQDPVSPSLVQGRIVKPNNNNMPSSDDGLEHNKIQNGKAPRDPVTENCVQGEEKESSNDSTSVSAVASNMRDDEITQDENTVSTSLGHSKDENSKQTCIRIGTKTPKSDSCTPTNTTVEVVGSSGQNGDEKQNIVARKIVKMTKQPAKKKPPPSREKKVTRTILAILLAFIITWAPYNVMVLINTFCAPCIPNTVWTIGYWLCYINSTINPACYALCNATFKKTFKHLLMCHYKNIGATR
Format: functional, cell-based.

For experiment [6], the target named is Neuronal acetylcholine receptor subunit alpha-4 (Homo sapiens, UniProt P43681).
The target of experiment [7] is T4, Estrogen receptor (Homo sapiens, UniProt P03372).
T4 sequence (P03372 whole entry): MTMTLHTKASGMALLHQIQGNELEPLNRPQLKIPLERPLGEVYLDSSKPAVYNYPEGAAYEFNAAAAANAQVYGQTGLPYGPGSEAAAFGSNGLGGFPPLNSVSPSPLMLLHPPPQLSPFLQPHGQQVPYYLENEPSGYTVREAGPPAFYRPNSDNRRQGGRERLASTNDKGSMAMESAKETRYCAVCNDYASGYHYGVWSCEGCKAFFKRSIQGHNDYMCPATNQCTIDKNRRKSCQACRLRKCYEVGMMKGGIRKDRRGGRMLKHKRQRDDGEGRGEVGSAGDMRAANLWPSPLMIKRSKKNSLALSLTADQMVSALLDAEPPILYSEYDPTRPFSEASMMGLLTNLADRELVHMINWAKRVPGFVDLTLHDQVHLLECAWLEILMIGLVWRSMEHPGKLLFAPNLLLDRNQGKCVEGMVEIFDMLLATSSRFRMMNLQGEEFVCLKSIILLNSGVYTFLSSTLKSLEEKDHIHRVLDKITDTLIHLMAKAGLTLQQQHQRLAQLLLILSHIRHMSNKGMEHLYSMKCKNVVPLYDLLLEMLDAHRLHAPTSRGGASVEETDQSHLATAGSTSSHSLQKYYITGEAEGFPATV

The target in experiment [8] is T5, 5-hydroxytryptamine receptor 1A (Homo sapiens, UniProt P08908).
T5 sequence (P08908 whole entry): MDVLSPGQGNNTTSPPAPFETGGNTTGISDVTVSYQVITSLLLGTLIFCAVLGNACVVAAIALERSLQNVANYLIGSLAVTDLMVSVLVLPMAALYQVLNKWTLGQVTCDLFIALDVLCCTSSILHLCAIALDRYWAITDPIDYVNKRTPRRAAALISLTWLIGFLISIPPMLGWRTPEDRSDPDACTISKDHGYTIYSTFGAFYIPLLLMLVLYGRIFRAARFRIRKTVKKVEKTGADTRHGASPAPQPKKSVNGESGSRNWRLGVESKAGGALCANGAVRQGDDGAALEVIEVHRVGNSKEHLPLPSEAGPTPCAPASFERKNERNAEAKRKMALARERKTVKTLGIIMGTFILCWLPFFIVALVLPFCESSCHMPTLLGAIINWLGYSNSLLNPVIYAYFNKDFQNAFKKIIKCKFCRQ
Format: functional, cell-based.

The target of experiment [9] is 3',5'-cyclic-AMP phosphodiesterase 4D (Homo sapiens, UniProt Q08499). It counts as functional.
Experiment [10] deals with T6, Thromboxane A2 receptor (Homo sapiens, UniProt P21731).
T6 sequence (P21731 whole entry): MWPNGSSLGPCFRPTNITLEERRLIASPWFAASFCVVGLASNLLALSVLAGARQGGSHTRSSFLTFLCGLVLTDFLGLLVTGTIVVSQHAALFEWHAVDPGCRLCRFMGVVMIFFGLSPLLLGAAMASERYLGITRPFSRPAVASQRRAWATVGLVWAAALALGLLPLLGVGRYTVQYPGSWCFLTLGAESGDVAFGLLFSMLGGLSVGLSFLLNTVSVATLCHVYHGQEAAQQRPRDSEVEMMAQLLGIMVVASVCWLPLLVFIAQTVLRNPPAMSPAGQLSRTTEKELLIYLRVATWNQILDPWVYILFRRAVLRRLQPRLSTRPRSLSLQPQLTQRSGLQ

The target in experiment [11] is cGMP-inhibited 3',5'-cyclic phosphodiesterase 3A (Homo sapiens, UniProt Q14432). Format: functional.

The term AC50 denotes the concentration at which the activity in the assay is half-maximal. Read a low AC50 as greater potency.
Note: assay procedure not described here.

Vasopressin V2 receptor, sequence (P30518 whole entry): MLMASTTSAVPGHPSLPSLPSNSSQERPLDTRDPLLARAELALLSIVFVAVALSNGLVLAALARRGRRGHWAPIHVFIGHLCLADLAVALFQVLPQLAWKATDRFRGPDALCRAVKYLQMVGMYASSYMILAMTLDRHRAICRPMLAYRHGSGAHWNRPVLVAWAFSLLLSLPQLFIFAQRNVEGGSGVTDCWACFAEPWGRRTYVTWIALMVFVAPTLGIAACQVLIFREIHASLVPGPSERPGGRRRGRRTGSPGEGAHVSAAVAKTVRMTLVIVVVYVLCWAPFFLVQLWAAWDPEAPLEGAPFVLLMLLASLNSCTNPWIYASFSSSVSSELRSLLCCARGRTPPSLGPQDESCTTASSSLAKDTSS
Beta-1 adrenergic receptor, sequence (P08588 whole entry): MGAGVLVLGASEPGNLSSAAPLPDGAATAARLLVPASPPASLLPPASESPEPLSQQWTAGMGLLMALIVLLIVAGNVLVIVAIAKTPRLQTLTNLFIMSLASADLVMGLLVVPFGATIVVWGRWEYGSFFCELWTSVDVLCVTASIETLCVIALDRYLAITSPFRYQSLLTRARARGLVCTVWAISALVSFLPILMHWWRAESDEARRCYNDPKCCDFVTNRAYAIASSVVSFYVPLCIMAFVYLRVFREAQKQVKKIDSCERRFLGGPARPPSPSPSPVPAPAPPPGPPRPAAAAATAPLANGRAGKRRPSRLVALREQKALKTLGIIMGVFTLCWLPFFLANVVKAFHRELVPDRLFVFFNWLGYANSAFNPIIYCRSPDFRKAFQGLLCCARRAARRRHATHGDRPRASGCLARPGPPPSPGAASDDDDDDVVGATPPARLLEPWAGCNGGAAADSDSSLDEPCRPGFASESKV
3',5'-cyclic-AMP phosphodiesterase 4D, sequence (Q08499 whole entry): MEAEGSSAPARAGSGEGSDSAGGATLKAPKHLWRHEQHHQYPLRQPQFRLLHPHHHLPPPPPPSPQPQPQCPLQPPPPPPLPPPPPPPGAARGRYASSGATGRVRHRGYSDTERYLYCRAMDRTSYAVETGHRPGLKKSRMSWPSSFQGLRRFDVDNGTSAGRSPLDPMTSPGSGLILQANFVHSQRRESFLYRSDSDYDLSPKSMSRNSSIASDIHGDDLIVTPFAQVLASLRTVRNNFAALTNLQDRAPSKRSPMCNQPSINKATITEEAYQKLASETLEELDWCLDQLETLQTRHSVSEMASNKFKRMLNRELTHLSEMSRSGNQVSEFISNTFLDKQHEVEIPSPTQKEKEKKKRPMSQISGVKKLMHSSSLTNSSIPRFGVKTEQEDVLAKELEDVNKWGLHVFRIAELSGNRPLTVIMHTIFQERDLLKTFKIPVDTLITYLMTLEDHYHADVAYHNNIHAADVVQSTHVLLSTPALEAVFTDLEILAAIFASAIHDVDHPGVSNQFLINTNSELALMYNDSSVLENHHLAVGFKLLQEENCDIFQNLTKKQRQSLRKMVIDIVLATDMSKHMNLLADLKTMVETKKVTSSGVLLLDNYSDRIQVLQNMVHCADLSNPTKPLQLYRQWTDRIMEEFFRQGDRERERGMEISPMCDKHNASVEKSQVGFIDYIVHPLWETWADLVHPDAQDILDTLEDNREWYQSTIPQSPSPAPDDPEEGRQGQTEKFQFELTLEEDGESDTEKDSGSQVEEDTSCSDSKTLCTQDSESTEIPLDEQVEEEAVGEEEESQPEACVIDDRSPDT
Neuronal acetylcholine receptor subunit alpha-4, sequence (P43681 whole entry): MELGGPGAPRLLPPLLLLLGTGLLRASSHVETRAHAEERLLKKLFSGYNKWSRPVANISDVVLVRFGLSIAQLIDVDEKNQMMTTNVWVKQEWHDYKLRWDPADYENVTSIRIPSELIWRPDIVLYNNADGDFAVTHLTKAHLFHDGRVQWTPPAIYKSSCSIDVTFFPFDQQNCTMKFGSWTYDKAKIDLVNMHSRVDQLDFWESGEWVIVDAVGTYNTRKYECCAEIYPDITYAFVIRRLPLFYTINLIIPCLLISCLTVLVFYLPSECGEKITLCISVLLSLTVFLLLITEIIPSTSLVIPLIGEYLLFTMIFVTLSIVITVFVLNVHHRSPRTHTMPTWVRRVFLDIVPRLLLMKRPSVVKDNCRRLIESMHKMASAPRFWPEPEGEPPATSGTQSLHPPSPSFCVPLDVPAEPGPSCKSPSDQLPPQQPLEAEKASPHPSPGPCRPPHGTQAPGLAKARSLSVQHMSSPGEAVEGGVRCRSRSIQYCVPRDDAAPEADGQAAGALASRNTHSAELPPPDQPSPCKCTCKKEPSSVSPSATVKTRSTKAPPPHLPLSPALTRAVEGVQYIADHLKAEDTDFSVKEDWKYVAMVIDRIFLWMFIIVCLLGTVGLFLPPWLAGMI
cGMP-inhibited 3',5'-cyclic phosphodiesterase 3A, sequence (Q14432 whole entry): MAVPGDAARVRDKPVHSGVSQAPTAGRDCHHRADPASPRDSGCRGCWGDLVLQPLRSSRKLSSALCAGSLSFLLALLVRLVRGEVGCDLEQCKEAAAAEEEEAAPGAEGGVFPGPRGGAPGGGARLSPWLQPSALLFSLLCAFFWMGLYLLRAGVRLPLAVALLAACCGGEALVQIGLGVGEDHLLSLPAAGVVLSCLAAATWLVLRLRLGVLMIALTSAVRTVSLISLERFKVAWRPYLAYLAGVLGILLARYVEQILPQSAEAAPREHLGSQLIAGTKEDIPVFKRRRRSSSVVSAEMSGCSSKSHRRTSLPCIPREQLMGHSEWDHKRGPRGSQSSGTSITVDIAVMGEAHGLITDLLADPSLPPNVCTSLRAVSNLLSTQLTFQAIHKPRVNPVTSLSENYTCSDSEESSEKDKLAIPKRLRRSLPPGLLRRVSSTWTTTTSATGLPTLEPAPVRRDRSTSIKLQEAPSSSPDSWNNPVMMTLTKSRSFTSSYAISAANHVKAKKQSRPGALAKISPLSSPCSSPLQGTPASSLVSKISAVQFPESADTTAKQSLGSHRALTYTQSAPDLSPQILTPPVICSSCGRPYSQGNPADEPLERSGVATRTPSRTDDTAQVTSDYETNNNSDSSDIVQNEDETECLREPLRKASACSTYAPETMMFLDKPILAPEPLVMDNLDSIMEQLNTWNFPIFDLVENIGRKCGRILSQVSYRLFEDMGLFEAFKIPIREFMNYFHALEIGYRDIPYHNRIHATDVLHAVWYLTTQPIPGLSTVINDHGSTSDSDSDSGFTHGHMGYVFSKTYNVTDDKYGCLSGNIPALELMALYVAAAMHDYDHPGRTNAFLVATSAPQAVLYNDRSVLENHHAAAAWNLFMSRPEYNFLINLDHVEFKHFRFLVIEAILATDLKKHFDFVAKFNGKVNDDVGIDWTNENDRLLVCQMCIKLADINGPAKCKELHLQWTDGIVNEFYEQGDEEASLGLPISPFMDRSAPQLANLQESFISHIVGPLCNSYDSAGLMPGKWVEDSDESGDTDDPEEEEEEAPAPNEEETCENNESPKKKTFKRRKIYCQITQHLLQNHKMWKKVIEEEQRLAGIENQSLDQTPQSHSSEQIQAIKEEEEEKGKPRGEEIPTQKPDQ

Regarding `CC(C)CN(C[C@@H](O)[C@H](Cc1ccccc1)NC(=O)O[C@H]1CCOC1)S(=O)(=O)c1ccc(N)cc1`, the AC50 in experiment [1] is above 30 µM; in [2], above 10 µM; in experiment [3], above 30 µM; in experiment [4], above 30 µM; in experiment [5], above 10 µM; in experiment [6], above 30 µM. For the same compound, the concentration at half-maximal activity (AC50) was above 10 µM in [7]; above 10 µM in [8]; above 30 µM in [9]; above 30 µM in [10]; above 30 µM in experiment [11].

With `O=C(O)c1ccc2nc(-c3cc(Cl)cc(Cl)c3)oc2c1`, the half-maximal activity concentration (AC50) in experiment [1] was above 30 µM; in experiment [2], above 30 µM; in experiment [3], above 30 µM; in experiment [4], above 10 µM; in experiment [5] it was above 30 µM; in experiment [6], above 30 µM. Also, the half-maximal activity concentration (AC50) in experiment [7] was above 30 µM; in [8], above 30 µM; in [9] it was 10.3 µM; in experiment [10] it was above 30 µM; in [11], 24 µM.

As to `NS(=O)(=O)c1ccc(N2CCCCS2(=O)=O)cc1`, the AC50 in [1], in [2], in [3], in experiment [4], in [5] and in [6] was above 30 µM in each case. For the same compound, the AC50 in experiment [7], in [8], in experiment [9], in experiment [10] and in [11] was above 30 µM in each case.

For `O=C(O[C@H]1C[N+]2(CCCOc3ccccc3)CCC1CC2)C(O)(c1cccs1)c1cccs1` [ACLIDINIUM BROMIDE], the AC50 was above 30 µM in [1]; above 10 µM in experiment [2]; above 30 µM in experiment [3]; above 30 µM in experiment [4]; above 10 µM in [6]; above 30 µM in experiment [7]. Moreover, the concentration at half-maximal activity (AC50) in experiment [9], in [10] and in experiment [11] was above 30 µM throughout.

Regarding `OCCN(CCO)c1nc(N2CCCCC2)c2nc(N(CCO)CCO)nc(N3CCCCC3)c2n1` [DIPYRIDAMOLE], the AC50 in experiment [1] is above 30 µM; in experiment [3] it was above 30 µM; in experiment [4] it was above 30 µM; in experiment [5] it was 2 µM; in [7], above 30 µM; in [8] it was above 30 µM. The concentration at half-maximal activity (AC50) in experiment [9] is 4.5 µM; in experiment [10], above 30 µM; in [11], above 30 µM.

For `Cc1cnc(Nc2ccc(OCCN3CCCC3)cc2)nc1Nc1cccc(S(=O)(=O)NC(C)(C)C)c1` [FEDRATINIB], the AC50 was 7.17 µM in experiment [1]; above 10 µM in experiment [2]; above 30 µM in experiment [3]; above 30 µM in experiment [4]; above 10 µM in [5]; above 10 µM in experiment [6]. Moreover, the AC50 was above 30 µM in experiment [7], 0.22 µM in experiment [9], above 30 µM in [10] and above 30 µM in experiment [11].

On to `CN1C2CCCC1CC(NC(=O)c1nn(C)c3ccccc13)C2` (stereo unspecified) [GRANISETRON], for which the AC50 in experiment [1] was above 30 µM; in experiment [2] it was above 10 µM; in [3] it was above 30 µM; in experiment [4], above 30 µM; in experiment [5] it was above 10 µM; in [7] it was above 30 µM. Further, the AC50 is above 10 µM in [8], above 10 µM in experiment [9], above 30 µM in experiment [10] and above 10 µM in [11].

As for `CCC(=O)O[C@H](CC(=O)O)C[N+](C)(C)C` [LEVOCARNITINE PROPIONATE], the AC50 in experiment [1], in experiment [2], in experiment [3], in [4], in experiment [5] and in experiment [6] was above 30 µM each time. For the same compound, the AC50 in [7], in experiment [8], in experiment [9] and in experiment [11] was above 30 µM each time.

On to `O=C(O)c1nn(Cc2ccc(Cl)cc2Cl)c2ccccc12` [LONIDAMINE], for which the AC50 in experiment [1], in [2], in experiment [3], in experiment [4], in experiment [5] and in experiment [6] was above 30 µM each time. Also, the concentration at half-maximal activity (AC50) in experiment [7], in experiment [8], in [9] and in experiment [11] was above 30 µM each time.

Consider `CS(=O)(=O)NC(=O)CCC/C=C\C[C@H]1C(=O)C[C@@H](O)[C@@H]1/C=C/[C@@H](O)COc1ccccc1` [SULPROSTONE], for which the AC50 in [1], in experiment [2], in experiment [3], in [4], in experiment [5] and in experiment [6] was above 30 µM throughout. The AC50 in experiment [7], in [8], in experiment [9] and in [11] was above 30 µM each time.

With `CCCCCCCC(=O)CC[C@@H]1[C@@H](C/C=C\CCCC(=O)O)[C@@H](O)C[C@H]1O` [UNOPROSTONE], the AC50 in [1], in experiment [2], in experiment [3], in experiment [4], in experiment [5] and in experiment [6] was above 30 µM throughout. The AC50 in experiment [7], in experiment [8], in [9] and in experiment [11] was above 30 µM in each case.

The values are drawn from ChEMBL document CHEMBL5291721, “A preclinical secondary pharmacology resource illuminates target-adverse drug reaction associations of marketed drugs” (Nat Commun, 2023).
